pIC50: −log10 of the molar value.
What follows are compounds tested on NCI-H1703 cells (assay: GLS Cell Proliferation Assay (NCI-H1703 cell proliferation)). Settings: Homo sapiens, NCI-H1703, 120 h, NCI-H1703 cells, 5 days; read-out: Assay c) Prolif Mean IC50.
Assay type: cell-based
Excerpt: The following assays were used to measure the effects of the compounds described herein: a) GLS Enzyme Potency Assay; b) GLS Cell Potency Assay; c) GLS Cell Proliferation Assay. During the description of the assays, generally: • i. The following abbreviations have been used: CO2=Carbon dioxide; DMEM=Dulbecco's Modified Eagle Medium; DMSO=Dimethyl sulphoxide; EDTA=Ethylenediaminetetraacetic acid; EGTA=Ethylene glycol tetraacetic acid; FCS=Foetal calf serum; h=Hour(s); NBS=Non-binding surface; SDS=Sodium dodecyl sulphate; TRIS=Tris(Hydroxymethyl)aminomethane. • ii. IC50 values were calculated using a smart fitting model in Genedata.
Assay c): GLS Cell Proliferation Assay
The ability of compounds to inhibit cell growth was measured using a 384 well plate NCI-H1703 cell proliferation assay. NCI-H1703 cells were grown in phenol red free RPMI1640, 10% FCS and 2 mM glutamine and seeded at a density of 750 cells per well in 40 μl of growth medium into clear-bottom 384 well assay plates (Corning product code 3712) and incubated for 24 h at 37° C., 5% CO2. […] DMSO concentration was maintained at 0.3% by back filling with DMSO solution. Plates were incubated for 5 days at 37° C., 5% CO2, Sytox Green and Saponin added to final concentration of 2 μM and 0.25% respectively and incubated for 6 h prior to analysis. […] IC50 values were calculated by curve fitting to max inhibition of day zero growth using GeneData software analysis.

| SMILES | pIC50 |
| --- | --- |
| COCC(C(=O)Nc1nnc(N[C@@H]2CCN(c3ccc(C)nn3)C2)s1)c1ccccc1 (single isomer, unassigned) [Example 45(a)] | 5.64 |
| CO[C@H](C(=O)Nc1nnc(N[C@@H]2CCN(c3cccnn3)C2)s1)c1cccc(N2CC(F)C2)c1 (single isomer, unassigned) [Example 1(b)] | 6.88 |
| COc1cc(OC)cc([C@H](OC)C(=O)Nc2nnc(N[C@@H]3CCN(c4ccc(C)nn4)C3)s2)c1 (single isomer, unassigned) [Example 4(a)] | 8.53 |
| CO[C@H](C(=O)Nc1nnc(N[C@@H]2CCN(c3cccnn3)C2)s1)c1ccc(F)c(N2CC(F)C2)c1 (single isomer, unassigned) [8(b)] | 7.41 |
| CO[C@H](C(=O)Nc1nnc(N[C@@H]2CCN(c3cccnn3)C2)s1)c1cccc(N2CC(F)C2)c1 (single isomer, unassigned) [Example 1(a)] | 8.59 |
| COc1cc(OC)cc([C@H](OC)C(=O)Nc2nnc(N[C@@H]3CCN(c4ccc(C)nn4)C3)s2)c1 (single isomer, unassigned) [4(b)] | 7.56 |
| COC[C@H](C(=O)Nc1nnc(N[C@@H]2CCN(c3ccc(C)nn3)C2)s1)c1ccccc1 (single isomer, unassigned) [45(b)] | 8.04 |
| COC(C(=O)Nc1nnc(N[C@@H]2CCN(c3cccnn3)C2)s1)c1cccc(C2COC2)c1 (single isomer, unassigned) [Example 18(a)] | 7.87 |
| COC1CN(c2cccc([C@H](OC)C(=O)Nc3nnc(N[C@@H]4CCN(c5cccnn5)C4)s3)c2)C1 (single isomer, unassigned) [3(b)] | 6.57 |
| COC1CN(c2cccc([C@H](OC)C(=O)Nc3nnc(N[C@@H]4CCN(c5cccnn5)C4)s3)c2)C1 (single isomer, unassigned) [Example 3(a)] | 8.58 |
| CO[C@H](C(=O)Nc1nnc(N[C@@H]2CCN(c3cccnn3)C2)s1)c1cccc(C2COC2)c1 (single isomer, unassigned) [18(b)] | 6.16 |
| COC(C(=O)Nc1nnc(N[C@@H]2CCN(c3ccc(F)nn3)C2)s1)c1cccc(N2CC(F)(F)C2)c1 (stereo partly drawn) [Example 42, 2-[3-(3,3-difluoroazetidin-1-yl)phenyl]-N-[5-[[(3R)-1-(6-fluoropyridazin-3-yl)pyrrolidin-3-yl]amino]-1,3,4-thiadiazol-2-yl]-2-methoxy-acetamide] | 7.09 |

Reference: patent publication US10981904B2, “1,3,4-thiadiazole compounds and their use in treating cancer” (Cancer Research Technology Limited, priority 2015, dated 2021)
